Patent US20230348486A1, “NEAR-INFRARED EMITTING PORPHYRIN COMPOUND AND PREPARATION METHOD AND USE THEREOF” (PEKING UNIVERSITY, priority 2020, published 2023)

Tests used:
[1] = test system: A375 human malignant melanoma cells; assay: Animal test of photodynamic therapy, subcutaneous tumor model; format: in vivo, BALB/C nude mice; conditions: skin application, 10 mg·kg^-1, light 400-700 nm, 2 weeks, FIG. 2
Experimental: BALB/C nude mice, which were 4-5 weeks old, females, 16-25 grams, were used in the in vivo experiment. Each mouse was inoculated with 100ul (5×10^6) of A375 human malignant melanoma cells subcutaneously in the right scapula, and the experiment was carried out two weeks later.
The nude mice were randomly individed to control group and skin application group with 6 mice in each group. The control group was only irradiated with light (tungsten lamp, 400-700 nm, 6.5 mW/cm^2) without administration, and the 1 mM/20 ul aqueous solution of molecule 6 was administrated to the skin application group in an amount of 10 mg·kg^-1 based on the weights of the nude mice. After administrated, the animals were protected from light for 24 hours, and then were each individually irradiated on their tumor sites for 30 minutes a day for consecutive 3 days. The nude mice were not protected from light after the treatment, and were took care in a breeding cage to observe the side effects such as skin phototoxicity appeared on each group of nude mice. After irradiated, the weights of nude mice were measured and their tumor volume were determined with vernier calipers every two days. After 2 weeks of treatment, the lumps were peeled off and weighed.

[2] = test system: A375 human malignant melanoma cells; assay: Cytophototoxicity test (CCK-8) under white light; format: cell-based; conditions: A-375, 0.5 h, white light 400-700 nm, about 6.5 mW/cm^2, 30 minutes, read-out: median lethal concentration IC50
Experimental: (§1) The cells used in the experiment included HeLa human cervical cancer cells, HepG2 human liver cancer cells, A375 human malignant melanoma cells, MCF7 human breast cancer cells, and HCT 116 human colon cancer cells. The cells were cultured in DMEM complete medium supplemented with 10% inactivated fetal bovine serum and 1% penicillin-streptomycin at 37° C. under the atmosphere of 5% carbon dioxide.
(§2) After trypsinized, the subculture HeLa cells were dispersed in the medium at appropriate concentration. Then, the dispersed HeLa cells were seeded into a poly-D-lysine modified flat-bottom 96-well plate, so that the amount of medium and the number of cells in each well were 200 µL and about 10^4, respectively, except a group of wells containing medium free of cells for blank control. After culturing the cells in the dark for 24 hours, the medium was removed, and 100 µL of fresh medium and 100 µL of pre-prepared medium solution containing molecule 6 synthesised in Example 6 were added, and then the sample was diluted to a gradient concentration of 0.1-5 µM. After culturing in the dark for another 24 hours, the medium was removed, and each well was rinsed 3 times with PBS (pH=7.4). 100µL of PBS buffer was added to each well, and irradiated
(§3) by white light (400-700 nm) with the same light intensity (about 6.5 mW/cm^2) under bromo-tungsten lamp for 30 minutes. The PBS in each well was removed and replaced with 200 µL of fresh medium to continue culturing for 24 hours. After that, the medium was removed and the wells were rinsed 3 times with PBS. Then 100 µL of 10% CCK-8 reagent (Cell Counting Kit-8) formulated with medium was added into each well to culture the cells for 2 hours. Meanwhile, 2-(2-methoxy-4-nitrophenyl)-3-(4-nitrophenyl)-5-(2,4-disulfonic acid benzene)-2H-[…] monosodium salt (WST-8) can be reduced by living cells together with electronic coupling reagents to yield a yellow product of formazan, accordingly changing the absorbance of the solution at 450 nm, and there was a direct proportional relationship between the change level and the number of living cells. The absorbance change of each well at 450 nm was measued by a microplate reader, and the cell survival rates at various culture concentrations were calculated according to the following equation: […]
(§4) wherein CV refers to the cell survival rate; As, Ac and Ab refer to the absorbance of the cells cultured with the compound, the absorbance of the cells cultured without the compound and the absorbance of the blank control, respectively.
(§5) The median lethal concentrations IC50 of molecule 6 in different cell lines were calculated according to the cell survival rates at various culture concentrations, and the results were shown as follows: […]

[3] = test system: HeLa human cervical cancer cells; assay: Cytophototoxicity test (CCK-8) under white light; format: cell-based; conditions: 24 h incubation in the dark, white light 400-700 nm, about 6.5 mW/cm^2, 30 minutes, CCK-8 after 24 hours, read-out: median lethal concentration IC50
Experimental: as §1, §2, §3, §4, §5

[4] = test system: HepG2 human liver cancer cells; assay: Cytophototoxicity test (CCK-8) under white light; format: cell-based; conditions: 0.5 h, white light 400-700 nm, about 6.5 mW/cm^2, 30 minutes, read-out: median lethal concentration IC50
Experimental: as §1, §2, §3, §4, §5

[5] = test system: MCF7 human breast cancer cells; assay: Cytophototoxicity test (CCK-8) under white light; format: cell-based; conditions: 0.5 h, white light 400-700 nm, about 6.5 mW/cm^2, 30 minutes, read-out: median lethal concentration IC50
Experimental: as §1, §2, §3, §4, §5

[6] = test system: HCT 116 human colon cancer cells; assay: Cytophototoxicity test (CCK-8) under white light; format: cell-based; conditions: HCT-116, 0.5 h, HCT116, white light 400-700 nm, about 6.5 mW/cm^2, 30 minutes, read-out: median lethal concentration IC50
Experimental: as §1, §2, §3, §4, §5

Structure (SMILES): C[N+](C)(C)c1c(F)c(F)c(-c2c3nc(c(-c4c(F)c(F)c([N+](C)(C)C)c(F)c4F)c4ccc([nH]4)c4c(nc5oc6c(F)c([N+](C)(C)C)c(F)c(F)c6c5c5ccc2[nH]5)oc2c(F)c([N+](C)(C)C)c(F)c(F)c24)C=C3)c(F)c1F [molecule 6]
- change of tumor size (growth of subcutaneous tumors) ([1]; 6.5 mW/cm^2, 30 minutes a day for 3 days): effectively inhibit the growth of subcutaneous tumors
- change of weight of the mice ([1]; 30 minutes a day for 3 days): no significant decrease
- IC50 [2]: 4750 ± 500 nM
- IC50 [3]: 2690 ± 100 nM
- IC50 [4]: 800 ± 100 nM
- IC50 [5]: 850 ± 100 nM
- IC50 [6]: 1520 ± 200 nM
